Test results published in US7981838B2, “Defoliant” (Bayer CropScience AG, priority 2007, dated 2011).

Tested on: Cotton plants of the cultivar "Linda"
Assay: Leaf drop (defoliation) test on cotton plants in climatized chamber, spray application
Assay type: in vivo
Conditions: 300 l/ha water
Protocol: A water application rate of 300 l/ha was initially charged. The components herbicide and adjuvant were then added with stirring at the application rates and in the manner stated in table 1, such that a homogeneous spray liquor was formed. Here, the active ingredients were employed as suspension concentrates. The adjuvant used was Agrotin® (Bayer CropScience).
Cotton seeds of the cultivar “Linda” were sown at a depth of 1 cm and cultivated in a climatized chamber (16 h of light, temperature during the day: 26° C., at night: 20° C.) until they had reached the 8-10 leaf stage.
The plants were treated on a laboratory spray track with spray liquors of thidiazuron and thidiazuron with combination partners. The water application rate for the spray application was 300 l/ha. After the treatment, the plants were returned to the climatized chamber.
1, 2 and 4 weeks after the application, the leaf drop effect was evaluated according to a scale from 0 to 100%: • 0%=no noticeable effect compared to untreated plants • 100%=all leaves have dropped. 2.2 Results for the Combinations of (A) TDZ with (B) Cyprosulfamide

[1] = Table 2, dose 200 g of a.i./ha, 0.2% by weight of Agrotin added
[2] = Table 2, dose 25 g of a.i./ha, 0.2% by weight of Agrotin added

COc1ccccc1C(=O)NS(=O)(=O)c1ccc(C(=O)NC2CC2)cc1 [Cyprosulfamide, 4-cyclopropylaminocarbonyl-N-(2-methoxybenzoyl)benzenesulfonamide]
Leaf drop [%] 2 weeks after application (Table 1, dose 100 g of a.i./ha, 1 l of Agrotin added, scale 0-100%): 7% | Leaf drop [%] 2 weeks after application (Table 1, dose 200 g of a.i./ha, 1 l of Agrotin added, scale 0-100%): 0% | Leaf drop [%] 1 week after application [1]: 0% | Leaf drop [%] 2 weeks after application [1]: 0% | Leaf drop [%] 4 weeks after application [1]: 0%

O=C(Nc1ccccc1)Nc1cnns1 [TDZ, thidiazuron]
Leaf drop [%] 2 weeks after application (Table 1, dose 35 g of a.i./ha, 1 l of Agrotin added, scale 0-100%): 67% | Leaf drop [%] 1 week after application [2]: 37% | Leaf drop [%] 2 weeks after application [2]: 56% | Leaf drop [%] 4 weeks after application [2]: 63%
